Values quoted from earlier work, collected in patent US7476499B2 (priority 2006, dated 2009).

Tested on: poliovirus virions

## Cc1cc(CCCCCCCOc2ccc(C3=NCCO3)cc2)on1 [WIN-51711, Disoxaril]
  mode of action on poliovirus: prevents the uncoating of the viral genome after viral cell entry
